Among the data in ChEMBL document CHEMBL5442175, “EUbOPEN Chemogenomics Library - PDSP Secondary Binding” (2024) are Ki values, retold here.

As usually defined, the Ki is a measure of affinity in units of concentration, obtained from inhibition or displacement. Lower therefore signals tighter binding.

Test [1] has as its target Sigma non-opioid intracellular receptor 1 (Homo sapiens, UniProt Q99720). Description: PDSP Secondary Binding target: SIGMAR1 - Compounds are tested at 10 uM concentration, plate are incubated at room temperature in the dark for 90 minutes. Reaction are stopped by vacuum filtration onto 0.3% polyethyleneimine soaked filter mats using Filtermate harvester. Scintillation cocktail is then melted onto microwave-dried filters on a hot plate and the radio activity is counted in Microbia counter.

Test [2] addresses 5-hydroxytryptamine receptor 2B (Homo sapiens, UniProt P41595). Briefly: PDSP Secondary Binding target: HTR2B - Compounds are tested at 10 uM concentration, plate are incubated at room temperature in the dark for 90 minutes. Reaction are stopped by vacuum filtration onto 0.3% polyethyleneimine soaked filter mats using Filtermate harvester. Scintillation cocktail is then melted onto microwave-dried filters on a hot plate and the radio activity is counted in Microbia counter.

The target of the next test is Histamine H4 receptor (Homo sapiens, UniProt Q9H3N8). Description: PDSP Secondary Binding target: HRH4 - Compounds are tested at 10 uM concentration, plate are incubated at room temperature in the dark for 90 minutes. Reaction are stopped by vacuum filtration onto 0.3% polyethyleneimine soaked filter mats using Filtermate harvester. Scintillation cocktail is then melted onto microwave-dried filters on a hot plate and the radio activity is counted in Microbia counter.
Sequence of Histamine H4 receptor (Q9H3N8 whole entry): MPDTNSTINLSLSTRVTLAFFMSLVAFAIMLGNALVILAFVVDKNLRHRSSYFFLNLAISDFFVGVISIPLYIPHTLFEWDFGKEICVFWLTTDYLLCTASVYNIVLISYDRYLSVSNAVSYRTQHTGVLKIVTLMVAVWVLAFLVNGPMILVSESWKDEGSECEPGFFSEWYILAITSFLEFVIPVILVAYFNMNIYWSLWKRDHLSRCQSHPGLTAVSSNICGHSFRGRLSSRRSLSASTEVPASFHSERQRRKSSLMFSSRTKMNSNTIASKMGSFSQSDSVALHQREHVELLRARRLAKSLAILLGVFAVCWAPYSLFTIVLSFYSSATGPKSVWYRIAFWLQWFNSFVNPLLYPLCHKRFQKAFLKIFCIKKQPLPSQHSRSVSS

Test [3] has as its target T1, Alpha-1D adrenergic receptor (Homo sapiens, UniProt P25100).
T1 sequence (P25100 whole entry): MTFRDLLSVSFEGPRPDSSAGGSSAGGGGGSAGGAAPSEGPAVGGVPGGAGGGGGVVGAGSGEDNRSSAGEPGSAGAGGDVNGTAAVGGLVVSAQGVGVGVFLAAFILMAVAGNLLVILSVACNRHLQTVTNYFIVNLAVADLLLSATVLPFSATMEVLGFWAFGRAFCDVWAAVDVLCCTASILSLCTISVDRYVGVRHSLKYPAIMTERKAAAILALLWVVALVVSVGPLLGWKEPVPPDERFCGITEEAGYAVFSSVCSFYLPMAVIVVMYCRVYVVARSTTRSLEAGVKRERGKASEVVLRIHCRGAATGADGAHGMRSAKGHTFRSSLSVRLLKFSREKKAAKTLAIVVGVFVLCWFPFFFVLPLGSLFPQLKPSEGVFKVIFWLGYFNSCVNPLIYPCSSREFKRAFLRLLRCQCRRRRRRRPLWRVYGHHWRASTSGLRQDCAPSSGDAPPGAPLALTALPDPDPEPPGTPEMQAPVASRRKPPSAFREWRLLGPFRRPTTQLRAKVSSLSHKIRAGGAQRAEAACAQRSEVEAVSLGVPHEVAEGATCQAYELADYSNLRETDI
Description: PDSP Secondary Binding target: ADRA1D - Compounds are tested at 10 uM concentration, plate are incubated at room temperature in the dark for 90 minutes. Reaction are stopped by vacuum filtration onto 0.3% polyethyleneimine soaked filter mats using Filtermate harvester. Scintillation cocktail is then melted onto microwave-dried filters on a hot plate and the radio activity is counted in Microbia counter.

The next test concerns the target Histamine H1 receptor (Homo sapiens, UniProt P35367). Briefly: PDSP Secondary Binding target: HRH1 - Compounds are tested at 10 uM concentration, plate are incubated at room temperature in the dark for 90 minutes. Reaction are stopped by vacuum filtration onto 0.3% polyethyleneimine soaked filter mats using Filtermate harvester. Scintillation cocktail is then melted onto microwave-dried filters on a hot plate and the radio activity is counted in Microbia counter.

In test [4] the target is 5-hydroxytryptamine receptor 2A (Homo sapiens, UniProt P28223). Briefly: PDSP Secondary Binding target: HTR2A - Compounds are tested at 10 uM concentration, plate are incubated at room temperature in the dark for 90 minutes. Reaction are stopped by vacuum filtration onto 0.3% polyethyleneimine soaked filter mats using Filtermate harvester. Scintillation cocktail is then melted onto microwave-dried filters on a hot plate and the radio activity is counted in Microbia counter.
Sequence of 5-hydroxytryptamine receptor 2A (P28223 whole entry): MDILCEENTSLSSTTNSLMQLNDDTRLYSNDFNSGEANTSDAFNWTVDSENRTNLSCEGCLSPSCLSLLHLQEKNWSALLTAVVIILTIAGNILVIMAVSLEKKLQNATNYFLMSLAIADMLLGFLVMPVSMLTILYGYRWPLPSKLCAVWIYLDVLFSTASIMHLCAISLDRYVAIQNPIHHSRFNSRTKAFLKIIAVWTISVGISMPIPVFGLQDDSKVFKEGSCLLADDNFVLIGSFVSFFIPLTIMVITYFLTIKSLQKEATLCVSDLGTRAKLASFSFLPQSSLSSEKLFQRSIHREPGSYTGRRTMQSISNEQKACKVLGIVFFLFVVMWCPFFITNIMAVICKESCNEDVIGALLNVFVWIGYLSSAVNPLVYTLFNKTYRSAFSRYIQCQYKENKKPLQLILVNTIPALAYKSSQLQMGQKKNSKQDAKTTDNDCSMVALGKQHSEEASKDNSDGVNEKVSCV

The target in test [5] is Delta-type opioid receptor (Homo sapiens, UniProt P41143). Briefly: PDSP Secondary Binding target: OPRD1 - Compounds are tested at 10 uM concentration, plate are incubated at room temperature in the dark for 90 minutes. Reaction are stopped by vacuum filtration onto 0.3% polyethyleneimine soaked filter mats using Filtermate harvester. Scintillation cocktail is then melted onto microwave-dried filters on a hot plate and the radio activity is counted in Microbia counter.
Sequence of Delta-type opioid receptor (P41143 whole entry): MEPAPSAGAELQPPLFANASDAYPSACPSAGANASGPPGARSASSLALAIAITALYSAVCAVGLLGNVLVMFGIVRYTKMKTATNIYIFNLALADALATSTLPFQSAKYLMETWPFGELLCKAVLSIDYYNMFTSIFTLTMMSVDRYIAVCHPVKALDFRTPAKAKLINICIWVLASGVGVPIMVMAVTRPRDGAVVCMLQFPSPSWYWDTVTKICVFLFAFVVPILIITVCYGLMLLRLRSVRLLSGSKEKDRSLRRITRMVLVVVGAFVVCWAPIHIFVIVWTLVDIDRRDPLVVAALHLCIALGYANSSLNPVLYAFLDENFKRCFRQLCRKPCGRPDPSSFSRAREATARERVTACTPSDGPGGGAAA

Test [6] addresses T2, 5-hydroxytryptamine receptor 3A (Homo sapiens, UniProt P46098).
T2 sequence (P46098 whole entry): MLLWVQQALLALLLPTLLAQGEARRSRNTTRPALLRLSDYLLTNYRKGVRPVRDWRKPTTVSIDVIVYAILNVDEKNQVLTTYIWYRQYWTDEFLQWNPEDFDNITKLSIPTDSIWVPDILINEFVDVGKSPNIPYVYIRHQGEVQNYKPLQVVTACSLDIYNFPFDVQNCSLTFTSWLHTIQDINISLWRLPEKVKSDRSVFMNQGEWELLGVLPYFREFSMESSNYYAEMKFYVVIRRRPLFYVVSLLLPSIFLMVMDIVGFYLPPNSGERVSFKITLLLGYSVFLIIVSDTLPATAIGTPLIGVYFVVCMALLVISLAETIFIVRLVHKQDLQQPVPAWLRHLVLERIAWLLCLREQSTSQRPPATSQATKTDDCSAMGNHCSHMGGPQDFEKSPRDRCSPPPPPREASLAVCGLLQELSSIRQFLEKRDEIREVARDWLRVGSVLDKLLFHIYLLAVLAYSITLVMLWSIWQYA
Description: PDSP Secondary Binding target: HTR3A - Compounds are tested at 10 uM concentration, plate are incubated at room temperature in the dark for 90 minutes. Reaction are stopped by vacuum filtration onto 0.3% polyethyleneimine soaked filter mats using Filtermate harvester. Scintillation cocktail is then melted onto microwave-dried filters on a hot plate and the radio activity is counted in Microbia counter.

For test [7], the target named is Beta-3 adrenergic receptor (Homo sapiens, UniProt P13945). Description: PDSP Secondary Binding target: ADRB3 - Compounds are tested at 10 uM concentration, plate are incubated at room temperature in the dark for 90 minutes. Reaction are stopped by vacuum filtration onto 0.3% polyethyleneimine soaked filter mats using Filtermate harvester. Scintillation cocktail is then melted onto microwave-dried filters on a hot plate and the radio activity is counted in Microbia counter.
Sequence of Beta-3 adrenergic receptor (P13945 whole entry): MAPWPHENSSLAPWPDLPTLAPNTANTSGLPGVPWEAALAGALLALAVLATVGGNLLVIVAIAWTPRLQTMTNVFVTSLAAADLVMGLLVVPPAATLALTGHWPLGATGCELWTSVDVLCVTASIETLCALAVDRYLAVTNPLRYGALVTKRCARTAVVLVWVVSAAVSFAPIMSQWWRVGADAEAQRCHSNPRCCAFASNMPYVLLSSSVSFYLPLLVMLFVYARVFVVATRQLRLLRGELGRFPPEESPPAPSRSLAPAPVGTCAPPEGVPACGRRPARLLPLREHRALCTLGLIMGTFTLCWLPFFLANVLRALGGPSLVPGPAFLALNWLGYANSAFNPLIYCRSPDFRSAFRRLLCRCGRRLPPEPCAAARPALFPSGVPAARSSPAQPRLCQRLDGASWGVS

Test [8] deals with Beta-1 adrenergic receptor (Homo sapiens, UniProt P08588). Description: PDSP Secondary Binding target: ADRB1 - Compounds are tested at 10 uM concentration, plate are incubated at room temperature in the dark for 90 minutes. Reaction are stopped by vacuum filtration onto 0.3% polyethyleneimine soaked filter mats using Filtermate harvester. Scintillation cocktail is then melted onto microwave-dried filters on a hot plate and the radio activity is counted in Microbia counter.
Sequence of Beta-1 adrenergic receptor (P08588 whole entry): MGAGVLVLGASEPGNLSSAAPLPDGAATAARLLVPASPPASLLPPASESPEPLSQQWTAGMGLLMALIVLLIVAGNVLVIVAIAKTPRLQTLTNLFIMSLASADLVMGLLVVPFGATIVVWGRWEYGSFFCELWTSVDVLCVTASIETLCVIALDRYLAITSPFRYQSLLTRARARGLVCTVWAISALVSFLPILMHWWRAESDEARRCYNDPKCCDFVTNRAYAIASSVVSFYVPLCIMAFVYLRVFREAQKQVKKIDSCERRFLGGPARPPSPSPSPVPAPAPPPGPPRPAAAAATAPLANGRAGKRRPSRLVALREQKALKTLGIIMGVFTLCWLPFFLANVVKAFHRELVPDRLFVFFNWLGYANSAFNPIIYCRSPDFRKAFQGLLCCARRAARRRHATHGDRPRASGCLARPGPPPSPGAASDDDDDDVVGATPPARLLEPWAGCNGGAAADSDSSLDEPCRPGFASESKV

Sequence of 5-hydroxytryptamine receptor 2B (P41595 whole entry): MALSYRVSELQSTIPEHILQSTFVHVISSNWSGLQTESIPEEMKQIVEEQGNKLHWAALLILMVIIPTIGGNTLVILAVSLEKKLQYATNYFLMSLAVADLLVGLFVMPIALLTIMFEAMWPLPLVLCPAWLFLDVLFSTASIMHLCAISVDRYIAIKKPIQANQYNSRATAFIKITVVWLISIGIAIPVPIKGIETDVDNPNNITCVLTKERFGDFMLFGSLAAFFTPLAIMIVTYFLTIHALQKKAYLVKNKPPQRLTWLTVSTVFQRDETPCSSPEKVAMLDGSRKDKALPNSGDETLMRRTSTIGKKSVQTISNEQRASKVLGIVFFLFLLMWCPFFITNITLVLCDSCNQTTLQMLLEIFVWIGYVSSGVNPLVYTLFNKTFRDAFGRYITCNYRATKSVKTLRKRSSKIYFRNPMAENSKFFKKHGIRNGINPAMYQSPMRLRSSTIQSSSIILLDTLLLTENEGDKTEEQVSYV
Sequence of Sigma non-opioid intracellular receptor 1 (Q99720 whole entry): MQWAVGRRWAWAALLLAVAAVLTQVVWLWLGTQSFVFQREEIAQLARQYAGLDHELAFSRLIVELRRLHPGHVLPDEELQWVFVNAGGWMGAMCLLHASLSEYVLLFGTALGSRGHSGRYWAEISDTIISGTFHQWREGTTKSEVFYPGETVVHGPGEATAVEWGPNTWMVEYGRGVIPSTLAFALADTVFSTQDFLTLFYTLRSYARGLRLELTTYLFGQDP
Sequence of Histamine H1 receptor (P35367 whole entry): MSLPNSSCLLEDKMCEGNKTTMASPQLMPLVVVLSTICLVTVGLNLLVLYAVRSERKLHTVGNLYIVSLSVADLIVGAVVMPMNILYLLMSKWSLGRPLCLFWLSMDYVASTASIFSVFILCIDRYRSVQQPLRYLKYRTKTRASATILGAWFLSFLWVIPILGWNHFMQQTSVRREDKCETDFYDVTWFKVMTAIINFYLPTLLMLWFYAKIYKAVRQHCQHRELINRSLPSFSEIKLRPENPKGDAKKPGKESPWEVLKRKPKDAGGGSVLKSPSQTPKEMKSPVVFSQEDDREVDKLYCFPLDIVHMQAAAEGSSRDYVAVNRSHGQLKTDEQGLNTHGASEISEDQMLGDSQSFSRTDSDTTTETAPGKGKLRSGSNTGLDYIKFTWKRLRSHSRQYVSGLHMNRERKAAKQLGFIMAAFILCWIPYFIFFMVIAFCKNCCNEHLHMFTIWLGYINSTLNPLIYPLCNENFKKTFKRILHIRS

As for `Nc1nc2c(c(N3CCNCC3)n1)CCC1=C2[C@@H]2CCCC[C@@H]2O1`, the Ki is 463 nM in test [1]; 280 nM in [2]; 18 nM on Histamine H4 receptor; 8030 nM in test [3]; 1280 nM on Histamine H1 receptor; 6430 nM in test [4]. For the same molecule, the Ki is above 10000 nM in [5] and 352 nM in test [6].
As to `O=C(Nc1ccc(Cl)cc1)Nc1cccc(-c2cccc(N3CCCC3)n2)c1`, the Ki in test [7] and in test [8] was above 10000 nM throughout.
